Data as given in patent US20230123334A1, “AMINO LIPID COMPOUND, PREPARATION METHOD THEREFOR, AND APPLICATION THEREOF” (SHENZHEN SHENXIN BIOTECHNOLOGY CO., LTD., priority 2020, published 2023).

Tests used:
Assay type in all cases: cell-based
Hela cells [1] = assay: Transfection of Hela cell line, DNA vectors; conditions: 75 ng plasmid DNA, GFP cells / total cells
Summary of the method: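 Amino lipid/DOPE liposomes in sodium acetate pH 5.6 were complexed with 75 ng psin-EGFP-IRES-Puro plasmid for 30 min at room temperature, then mixed with 3-5×10^4 Hela cells in DMEM/10% FBS at 37° C. Hoechst stain after 20-24 h, imaging after a further 20-24 h. Efficiency = GFP-positive cells / total nuclei.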

Hela cells [2] = assay: Transfection of Hela cell line, mRNA vectors; conditions: 50 ng EGFP mRNA per well
Summary of the method: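 HeLa cells in DMEM with 10% FBS transfected with 50 ng EGFP mRNA per well. Readout is percentage of GFP-positive cells among total cells counted by Hoechst nuclear stain; Lipofectamine2000 served as positive control.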

MCF7 cells [3] = assay: Transfection of MCF7 cell line, DNA vectors; parameters: concentration or dose not given beside the values; conditions: plasmid DNA, GFP cells / total cells
Summary of the method: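 MCF7 cells in DMEM with fetal bovine serum were transfected in 96-well format. Read-out was the percentage of GFP-fluorescent cells among total cells counted by Hoechst nuclear stain. Lipofectamine2000 served as positive control.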

MCF7 cells [4] = assay: Transfection of MCF7 cell line, mRNA vectors; conditions: 50 ng EGFP mRNA per well
Summary of the method: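 MCF7 cells in DMEM with fetal bovine serum were transfected with 50 ng EGFP mRNA per well. Read-out was the percentage of GFP-positive cells among total Hoechst-stained nuclei, with Lipofectamine2000 as positive control.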

[5] = tested on: embryonic stem cells (hESC2); assay: Screening as DNA vectors in embryonic stem cells, flow cytometry; conditions: 75 ng plasmid DNA, 48 hours after transfection, flow cytometer
Summary of the method: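 hESC2 cells in mTeSR1 on matrigel transfected with 75 ng pSin-EGFP-IRES-Puro complexed with amino lipid/DOPE liposomes formed in sodium acetate pH 5.6; 37 °C, 5% CO2. After 48 h, GFP-positive cells counted by flow cytometry (≥2000 cells), efficiency also expressed relative to Lipofectamine Stem.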

[6] = tested on: embryonic stem cells (hESC2); assay: Screening as mRNA vectors in embryonic stem cells; conditions: 50 ng EGFP mRNA per well
Summary of the method: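 EGFP mRNA (50 ng per well) transfected into hESC2 cells grown in mTeSR1; Lipofectamine Stem served as positive control. Read-out: GFP-fluorescent cells as percentage of total cells.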

cardiomyocytes [7] = assay: Screening as DNA vectors in cardiomyocytes; parameters: concentration or dose not given beside the values; conditions: method as Example 4
Summary of the method: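 hESC-derived cardiomyocytes in DMEM with 10% FBS were transfected with a GFP DNA vector; Lipofectamine Stem served as positive control. Read-out: percentage of GFP-positive cells relative to total cells counted by Hoechst nuclear stain.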

cardiomyocytes [8] = assay: Screening as mRNA vectors in cardiomyocytes; conditions: 50 ng EGFP mRNA per well
Summary of the method: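 Cardiomyocytes differentiated from hESC, in DMEM with 10% FBS, were transfected with 50 ng EGFP mRNA per well. The read-out was GFP-positive cells as a percentage of Hoechst-stained nuclei, with Lipofectamine Stem as positive control.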

CCCCCCCCCCCSc1nc(NCCCCCCCC)nc(NCCN2CCCC2)n1 [Compound S11N8D3]
Absolute DNA transfection efficiency in Hela cells (Hela cells [1]): 12.9%
Absolute mRNA transfection efficiency in Hela cells (Hela cells [2]): 12.9%
Absolute DNA transfection efficiency in MCF7 cells (MCF7 cells [3]): 17.7%
Absolute mRNA transfection efficiency in MCF7 cells (MCF7 cells [4]): 8.6%
Absolute DNA transfection efficiency in embryonic stem cells [5]: 4.3%
Absolute mRNA transfection efficiency in embryonic stem cells [6]: 12.8%
Absolute DNA transfection efficiency in cardiomyocytes (cardiomyocytes [7]): 0.2%
Absolute mRNA transfection efficiency in cardiomyocytes (cardiomyocytes [8]): 24.5%

CCCCCCCCCCCSc1nc(NCCCCCCCC)nc(NCCN2CCN(C)CC2)n1 [Compound S11N8D5]
Absolute DNA transfection efficiency in Hela cells (Hela cells [1]): 9.6%
Absolute mRNA transfection efficiency in Hela cells (Hela cells [2]): 9.6%
Absolute DNA transfection efficiency in MCF7 cells (MCF7 cells [3]): 20.1%
Absolute mRNA transfection efficiency in MCF7 cells (MCF7 cells [4]): 21.2%
Absolute DNA transfection efficiency in embryonic stem cells [5]: 4.0%
Absolute mRNA transfection efficiency in embryonic stem cells [6]: 6.9%
Absolute DNA transfection efficiency in cardiomyocytes (cardiomyocytes [7]): 9.1%
Absolute mRNA transfection efficiency in cardiomyocytes (cardiomyocytes [8]): 32.2%

CCCCCCCCCCCSc1nc(NCCCCCCCC)nc(NCCCN(C)C)n1 [Compound S11N8D6]
Absolute DNA transfection efficiency in Hela cells (Hela cells [1]): 18.4%
Absolute mRNA transfection efficiency in Hela cells (Hela cells [2]): 18.4%
Absolute DNA transfection efficiency in MCF7 cells (MCF7 cells [3]): 9.3%
Absolute mRNA transfection efficiency in MCF7 cells (MCF7 cells [4]): 11.0%
Absolute DNA transfection efficiency in embryonic stem cells [5]: 1.7%
Absolute mRNA transfection efficiency in embryonic stem cells [6]: 2.0%
Absolute DNA transfection efficiency in cardiomyocytes (cardiomyocytes [7]): 6.7%
Absolute mRNA transfection efficiency in cardiomyocytes (cardiomyocytes [8]): 7.9%

CCCCCCCCCCCSc1nc(NCCCCCCCC)nc(NCCCN2CCOCC2)n1 [Compound S11N8D8]
Absolute DNA transfection efficiency in Hela cells (Hela cells [1]): 6.1%
Absolute mRNA transfection efficiency in Hela cells (Hela cells [2]): 6.1%
Absolute DNA transfection efficiency in MCF7 cells (MCF7 cells [3]): 0.1%
Absolute mRNA transfection efficiency in MCF7 cells (MCF7 cells [4]): 7.8%
Absolute DNA transfection efficiency in embryonic stem cells [5]: 0.0%
Absolute mRNA transfection efficiency in embryonic stem cells [6]: 1.3%
Absolute DNA transfection efficiency in cardiomyocytes (cardiomyocytes [7]): 1.2%
Absolute mRNA transfection efficiency in cardiomyocytes (cardiomyocytes [8]): 0.9%

CCCCCCCCCCCSc1nc(NCCCCCCCC)nc(NCCCN2CCN(C)CC2)n1 [Compound S11N8D9]
Absolute DNA transfection efficiency in Hela cells (Hela cells [1]): 11.7%
Absolute mRNA transfection efficiency in Hela cells (Hela cells [2]): 11.9%
Absolute DNA transfection efficiency in MCF7 cells (MCF7 cells [3]): 20.9%
Absolute mRNA transfection efficiency in MCF7 cells (MCF7 cells [4]): 42.3%
Absolute DNA transfection efficiency in embryonic stem cells [5]: 3.6%
Absolute mRNA transfection efficiency in embryonic stem cells [6]: 34.8%
Absolute DNA transfection efficiency in cardiomyocytes (cardiomyocytes [7]): 0.1%
Absolute mRNA transfection efficiency in cardiomyocytes (cardiomyocytes [8]): 25.8%

CCCCCCCCCCCSc1nc(NCCCCCCCC)nc(NCC2CCN(C)CC2)n1 [Compound S11N8D10]
Absolute DNA transfection efficiency in Hela cells (Hela cells [1]): 16.7%
Absolute mRNA transfection efficiency in Hela cells (Hela cells [2]): 16.7%
Absolute DNA transfection efficiency in MCF7 cells (MCF7 cells [3]): 25.6%
Absolute mRNA transfection efficiency in MCF7 cells (MCF7 cells [4]): 38.9%
Absolute DNA transfection efficiency in embryonic stem cells [5]: 12.6%
Absolute mRNA transfection efficiency in embryonic stem cells [6]: 35.4%
Absolute DNA transfection efficiency in cardiomyocytes (cardiomyocytes [7]): 6.6%
Absolute mRNA transfection efficiency in cardiomyocytes (cardiomyocytes [8]): 41.7%

CCCCCCCCCCCSc1nc(NCCCCCCCCC)nc(NCCN2CCCC2)n1 [Compound S11N9D3]
Absolute DNA transfection efficiency in Hela cells (Hela cells [1]): 11.5%
Absolute mRNA transfection efficiency in Hela cells (Hela cells [2]): 11.5%
Absolute DNA transfection efficiency in MCF7 cells (MCF7 cells [3]): 13.6%
Absolute mRNA transfection efficiency in MCF7 cells (MCF7 cells [4]): 26.6%
Absolute DNA transfection efficiency in embryonic stem cells [5]: 3.7%
Absolute mRNA transfection efficiency in embryonic stem cells [6]: 22.0%
Absolute DNA transfection efficiency in cardiomyocytes (cardiomyocytes [7]): 0.3%
Absolute mRNA transfection efficiency in cardiomyocytes (cardiomyocytes [8]): 8.3%

CCCCCCCCCCCSc1nc(NCCCCCCCCC)nc(NCCN2CCN(C)CC2)n1 [Compound S11N9D5]
Absolute DNA transfection efficiency in Hela cells (Hela cells [1]): 10.6%
Absolute mRNA transfection efficiency in Hela cells (Hela cells [2]): 10.6%
Absolute DNA transfection efficiency in MCF7 cells (MCF7 cells [3]): 23.1%
Absolute mRNA transfection efficiency in MCF7 cells (MCF7 cells [4]): 17.8%
Absolute DNA transfection efficiency in embryonic stem cells [5]: 0.5%
Absolute mRNA transfection efficiency in embryonic stem cells [6]: 24.9%
Absolute DNA transfection efficiency in cardiomyocytes (cardiomyocytes [7]): 19.7%
Absolute mRNA transfection efficiency in cardiomyocytes (cardiomyocytes [8]): 30.7%

CCCCCCCCCCCSc1nc(NCCCCCCCCC)nc(NCCCN(C)C)n1 [Compound S11N9D6]
Absolute DNA transfection efficiency in Hela cells (Hela cells [1]): 20.3%
Absolute mRNA transfection efficiency in Hela cells (Hela cells [2]): 20.3%
Absolute DNA transfection efficiency in MCF7 cells (MCF7 cells [3]): 25.1%
Absolute mRNA transfection efficiency in MCF7 cells (MCF7 cells [4]): 32.6%
Absolute DNA transfection efficiency in embryonic stem cells [5]: 1.0%
Absolute mRNA transfection efficiency in embryonic stem cells [6]: 0.7%
Absolute DNA transfection efficiency in cardiomyocytes (cardiomyocytes [7]): 22.5%
Absolute mRNA transfection efficiency in cardiomyocytes (cardiomyocytes [8]): 8.7%

CCCCCCCCCCCSc1nc(NCCCCCCCCC)nc(NCCCN2CCOCC2)n1 [Compound S11N9D8]
Absolute DNA transfection efficiency in Hela cells (Hela cells [1]): 4.3%
Absolute mRNA transfection efficiency in Hela cells (Hela cells [2]): 4.3%
Absolute DNA transfection efficiency in MCF7 cells (MCF7 cells [3]): 0.9%
Absolute mRNA transfection efficiency in MCF7 cells (MCF7 cells [4]): 13.1%
Absolute DNA transfection efficiency in embryonic stem cells [5]: 0.8%
Absolute mRNA transfection efficiency in embryonic stem cells [6]: 3.2%
Absolute DNA transfection efficiency in cardiomyocytes (cardiomyocytes [7]): 1.7%
Absolute mRNA transfection efficiency in cardiomyocytes (cardiomyocytes [8]): 2.6%

CCCCCCCCCCCSc1nc(NCCCCCCCCC)nc(NCCCN2CCN(C)CC2)n1 [Compound S11N9D9]
Absolute DNA transfection efficiency in Hela cells (Hela cells [1]): 11.8%
Absolute mRNA transfection efficiency in Hela cells (Hela cells [2]): 11.8%
Absolute DNA transfection efficiency in MCF7 cells (MCF7 cells [3]): 33.5%
Absolute mRNA transfection efficiency in MCF7 cells (MCF7 cells [4]): 27.3%
Absolute DNA transfection efficiency in embryonic stem cells [5]: 1.4%
Absolute mRNA transfection efficiency in embryonic stem cells [6]: 33.5%
Absolute DNA transfection efficiency in cardiomyocytes (cardiomyocytes [7]): 0.3%
Absolute mRNA transfection efficiency in cardiomyocytes (cardiomyocytes [8]): 21.0%

CCCCCCCCCCCSc1nc(NCCCCCCCCC)nc(NCC2CCN(C)CC2)n1 [Compound S11N9D10]
Absolute DNA transfection efficiency in Hela cells (Hela cells [1]): 16.2%
Absolute mRNA transfection efficiency in Hela cells (Hela cells [2]): 16.2%
Absolute DNA transfection efficiency in MCF7 cells (MCF7 cells [3]): 48.7%
Absolute mRNA transfection efficiency in MCF7 cells (MCF7 cells [4]): 36.6%
Absolute DNA transfection efficiency in embryonic stem cells [5]: 0.5%
Absolute mRNA transfection efficiency in embryonic stem cells [6]: 39.3%
Absolute DNA transfection efficiency in cardiomyocytes (cardiomyocytes [7]): 16.4%
Absolute mRNA transfection efficiency in cardiomyocytes (cardiomyocytes [8]): 29.6%
